Values of other authors in patent US20180055752A1, “TOPICAL COMPOSITIONS TO REDUCE HAIR GROWTH” (The Regents of the University of California, priority 2016, published 2018).
“Also recorded” adds a separate entry of the source. Where two headings read alike, the source gives them in different places.

Legend:
[1] = eight children treated for hypoglycemia of infancy
[2] = tested on: Kir6.2/SUR1 and SUR2B K-ATP channels
[3] = tested on: deer hair follicle; conditions: tolbutamide 1 mM
[4] = tested on: cultured human hair follicles

| Structure (SMILES) | hypertrichosis as side effect [1] | K-ATP channel subtype selectivity and potency [2] | inhibition of hair follicle growth ([3]; glibenclamide at a single concentration) | K-ATP channel subtype selectivity and potency ([2]; listed as Tolbutamide) | effect on hair follicle growth stimulated by minoxidil / diazoxide ([3]; 10 μM minoxidil) | effect on anagen [4] |
| --- | --- | --- | --- | --- | --- | --- |
| CC1=NS(=O)(=O)c2cc(Cl)ccc2N1 [diazoxide] | all developed hypertrichosis | – | – | – | – | – |
| COc1ccc(Cl)cc1C(=O)NCCc1ccc(S(=O)(=O)NC(=O)NC2CCCCC2)cc1 [glibenclamide] | – | nonselectively blocks both SUR1 and SUR2B forms with high affinity; also recorded: non-selectively blocks both SUR1 and SUR2B forms with high affinity | did not inhibit deer hair follicle growth | – | – | – |
| CCCCNC(=O)NS(=O)(=O)c1ccc(C)cc1 [tolbutamide] | – | selectively inhibits Kir6.2/SUR1 K-ATP channels with low potency | – | selectively inhibits Kir6.2/SUR1 KATP channels with low potency | abolished the effect of 10 μM minoxidil, and diazoxide | shorten anagen |
